This note sets out measurements from EPA's ToxRefDB 2.

Bounds are passed on as bounds.

Data set [1] has as its system mouse. The following applies: Carcinogenicity, cd1, Oral, [Not Specified], dose end: 18 month, group: systemic.
Data set [2] concerns rabbit. The following applies: Prenatal developmental toxicity study, new zealand white, Oral, Gavage/Intubation, dose end: 18 GD.
Data set [3] has as its system rat. The following applies: Combined chronic toxicity/carcinogenicity, sprague dawley, Oral, Feed, dose end: 105 week, group: systemic.
For data set [4], the system named is rat. Particulars: Combined chronic toxicity/carcinogenicity, sprague dawley, Oral, Feed, dose end: 104 week, group: systemic.
In data set [5] the test system is rat. Particulars: Subchronic oral toxicity in rodents, sprague dawley, Gavage/Intubation, dose end: 12 week, group: systemic, systemic / clinical chemistry / albumin / albumin + systemic / clinical chemistry / alkaline phosphatase (alp/alk) / alkaline phosphatase (….
Data set [6] has as its system rat. Particulars: Developmental neurotoxicity study; other; Oral; Gavage/Intubation; dose end: 112 PND; group: cannot be grouped; systemic / in life observation / body weight / offspring (pup) weight gain.
For data set [7], the system named is mouse. Particulars: Subchronic oral toxicity in rodents, b6c3f1, Gavage/Intubation, dose end: 13 week, group: systemic.
Data set [8] has as its system mouse. Particulars: Prenatal developmental toxicity study; cd1; Oral; Gavage/Intubation; dose end: 15 GD; group: maternal; systemic / in life observation / clinical signs / ataxia + systemic / in life observation / mortality / mortality.
Data set [9] deals with rat. The following applies: Carcinogenicity; fischer; Oral; Gavage/Intubation; dose end: 103 week; group: systemic; systemic / pathology microscopic / spleen / fibrosis + systemic / pathology microscopic / stomach / dysplasia + systemic / pathology ….
Data set [10] deals with rat. Particulars: Subchronic oral toxicity in rodents, fischer, Gavage/Intubation, dose end: 13 week, group: systemic.
The test system of data set [11] is mouse. The following applies: Sub-acute repeat dose toxicity, b6c3f1, Oral, Gavage/Intubation, dose end: 16 day, group: systemic.
Data set [12] relates to mouse. The following applies: Carcinogenicity, b6c3f1, Oral, Gavage/Intubation, dose end: 103 week, group: systemic.
Data set [13] deals with rat. The following applies: Sub-acute repeat dose toxicity, fischer, Oral, Gavage/Intubation, dose end: 16 day, group: systemic.
Setting [14] is: systemic / in life observation / body weight / body weight.
[15] abbreviates: systemic / in life observation / food consumption / food consumption + systemic / in life observation / body weight / body weight.
The mark [16] stands for this setting: group: developmental, developmental / developmental malformation / bone / supernumerary.
[17] abbreviates: group: developmental, developmental / developmental malformation / bone / supernumerary + developmental / developmental malformation / heart / [other] + ….
Where [18] appears, read: group: maternal, systemic / in life observation / body weight / body weight gain + systemic / in life observation / food consumption / food consumption.
Setting [19] is: systemic / clinical chemistry / aspartate aminotransferase (ast/sgot) / aspartate aminotransferase (ast/sgot).
[20] abbreviates: systemic / in life observation / mortality / mortality + systemic / pathology gross / mammary gland / cyst + systemic / pathology gross / ….
Where [21] appears, read: systemic / in life observation / clinical signs / fur (altered appearance) + systemic / in life observation / clinical signs / urine ….
[22] abbreviates: systemic / in life observation / body weight / body weight + systemic / pathology gross / sperm measure / sperm count + systemic / pathology….
Where [23] appears, read: systemic / pathology gross / sperm measure / sperm count + systemic / pathology gross / sperm measure / sperm motility + systemic / ….
Where [24] appears, read: systemic / pathology gross / sperm measure / sperm count + systemic / pathology gross / sperm measure / sperm motility.
[25] abbreviates: systemic / in life observation / body weight / body weight + systemic / in life observation / clinical signs / defecation (diarrhea) + ….
The mark [26] stands for this setting: systemic / in life observation / body weight / body weight + systemic / pathology microscopic / harderian gland / adenoma + systemic / ….
Setting [27] is: systemic / in life observation / body weight / body weight + systemic / in life observation / mortality / mortality + systemic / pathology ….

Turning to `CC1(C)C(=O)N(Cl)C(=O)N1Cl` [1,3-Dichloro-5,5-dimethylhydantoin], the LEL turned out to be 320 mg/kg/day in data set [1] (setting [14]); 500 mg/kg/day in [2] (setting [16]); 1000 mg/kg/day in [2] (setting [18]); 100 mg/kg/day in data set [3] (setting [19]); 100 mg/kg/day in data set [4] (setting [21]). Further, the NEL is 100 mg/kg/day in [1] (systemic / in life observation / body weight / body weight + systemic / in life observation / food consumption / food consumption); 100 mg/kg/day in [2] (setting [17]); 500 mg/kg/day in [2] (setting [18]); less than 100 mg/kg/day in data set [3] (setting [19]); less than 100 mg/kg/day in [4] (setting [21]). For the same compound, the lowest-observed-adverse-effect level (LOAEL) in data set [1] (setting [15]) was more than 1000 mg/kg/day; in [2] (setting [16]) it was 500 mg/kg/day; in [2] (setting [18]) it was 1000 mg/kg/day; in data set [3] (setting [20]), 1000 mg/kg/day; in data set [4] (systemic / in life observation / body weight / body weight + systemic / in life observation / body weight / body weight gain + systemic / …), 1000 mg/kg/day. The NOAEL in [1] (setting [15]) was not below 1000 mg/kg/day; in data set [2] (setting [17]), 100 mg/kg/day; in data set [2] (setting [18]) it was 500 mg/kg/day; in data set [3] (setting [20]) it was 320 mg/kg/day; in data set [4] (systemic / in life observation / body weight / body weight + systemic / in life observation / body weight / body weight gain + systemic / in…) it was 300 mg/kg/day.
Take `CC1=C(/C=C/C(C)=C/C=C/C(C)=C\C(=O)O)C(C)(C)CCC1` [13-cis Retinoic acid]: in [5], the LEL was 4 mg/kg/day, the lowest observed adverse effect level (LOAEL) was more than 40 mg/kg/day, the NEL is less than 4 mg/kg/day and the NOAEL is not below 40 mg/kg/day.
`CN(C)CCCN1c2ccccc2Sc2ccc(Cl)cc21` [Chlorpromazine]: in data set [6], the LEL is 3 mg/kg/day, the lowest-observed-adverse-effect level (LOAEL) is more than 9 mg/kg/day, the NEL is 1 mg/kg/day and the NOAEL was not below 9 mg/kg/day.
Turning to `OCC1CO1` (stereo unspecified) [Glycidol], the LEL in [7] (setting [22]) was 19 mg/kg/day; in data set [8], 200 mg/kg/day; in data set [9], 37.5 mg/kg/day; in data set [10] (setting [24]), 25 mg/kg/day; in data set [11] (systemic / in life observation / body weight / body weight + systemic / in life observation / clinical signs / defecation (diarrhea)), 150 mg/kg/day; in data set [12] (setting [26]), 25 mg/kg/day. For the same compound, in data set [13] (setting [14]), the LEL is 150 mg/kg/day. Also, the NEL is less than 19 mg/kg/day in [7] (setting [22]); 150 mg/kg/day in data set [8]; less than 37.5 mg/kg/day in [9]; less than 25 mg/kg/day in data set [10] (setting [24]); 75 mg/kg/day in data set [11] (setting [25]); less than 25 mg/kg/day in [12] (setting [26]). In data set [13] (setting [27]), the NEL was 75 mg/kg/day. Besides, the lowest-observed-adverse-effect level (LOAEL) is 75 mg/kg/day in data set [7] (setting [23]); more than 200 mg/kg/day in data set [8]; 37.5 mg/kg/day in data set [9]; 200 mg/kg/day in data set [10] (systemic / in life observation / body weight / body weight + systemic / pathology microscopic / brain / necrosis + systemic / pathology …); more than 600 mg/kg/day in [11] (setting [25]); 50 mg/kg/day in data set [12] (systemic / in life observation / body weight / body weight + systemic / pathology microscopic / stomach / hyperplasia). The LOAEL in data set [13] (setting [14]) is 150 mg/kg/day. Moreover, the NOAEL in [7] (setting [23]) was 38 mg/kg/day; in data set [8], not below 200 mg/kg/day; in data set [9], less than 37.5 mg/kg/day; in [10] (systemic / in life observation / body weight / body weight + systemic / pathology microscopic / brain / necrosis + systemic / in life …), 100 mg/kg/day; in [11] (setting [25]), not below 600 mg/kg/day; in [12] (setting [26]) it was 25 mg/kg/day. Besides, the no-observed-adverse-effect level (NOAEL) in data set [13] (setting [27]) was found to be 75 mg/kg/day.
